Reference: publication PMC3057712 (Molecular Biology of the Cell, 2011)

Biological target: T1, Sfh1 (Saccharomyces cerevisiae, UniProt P33324)
T1 sequence (P33324 1-310): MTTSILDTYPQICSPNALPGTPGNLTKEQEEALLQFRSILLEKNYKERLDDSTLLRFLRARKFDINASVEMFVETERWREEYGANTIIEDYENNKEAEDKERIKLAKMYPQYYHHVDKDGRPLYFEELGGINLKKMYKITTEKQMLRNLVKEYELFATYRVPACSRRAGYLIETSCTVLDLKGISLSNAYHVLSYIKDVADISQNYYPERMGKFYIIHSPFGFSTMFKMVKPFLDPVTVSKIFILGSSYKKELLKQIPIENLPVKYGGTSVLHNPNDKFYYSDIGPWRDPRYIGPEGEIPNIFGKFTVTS
Experiment: CW X-band EPR, loading from multilamellar liposomes
Format: binding
Settings: 130 μM protein, twofold molar excess of lipid, pH 6.8, 23°C; labelled compound

Substance: 1-acyl-2-(n-(4,4-dimethyloxazolidine-N-oxyl)stearoyl)-sn-glycero-3-phosphocholines [16-doxyl-PtdCho]
- % of total protein loaded: ~ 20%
